Where a name gives a salt, the structure may show the parent alone. Read-outs that look alike come from different tables or passages of the source.
Columns and labels:
Format in all cases: in vivo
Myzus persicae [1] = assay: Soil Irrigation Test on Myzus persicae; settings: 144 h, 100 ppm solution, 10 ml soil irrigation of cabbage seedlings, greenhouse, 6 days after release of insects
Protocol: 10% emulsifiable concentrates of compounds of the present invention were diluted with tap water to obtain 100 ppm solutions. The soil around the bases of cabbage seedlings (at the 2.5 true leaf stage) planted in plastic cups was irrigated with 10 ml of the solutions, and the cups were placed in a greenhouse. One day after the irrigation, adults of Myzus persicae were released at a ratio of 20 insects per seedling, and the seedlings were incubated in the greenhouse. 6 Days after the release of the insects, living insects were counted, and the control value was calculated from the following equation.
Control value (%)={1−(Cb×Tai)/(Cai×Tb)}×100
Cb: the number of insects in a non-treated area before treatment
Cai: the final number of living insects in a non-treated area
Tb: the number of insects in a treated area before treatment
Tai: the final number of living insects in a treated area

Nilaparvata lugens = assay: Insecticidal Test on Nilaparvata lugens; settings: 144 h
Protocol: 10% emulsifiable concentrates (or 10% wettable powders) of compounds of the present invention were diluted with water containing a spreader to obtain 500 ppm solutions. Rice sheaths were soaked in the solutions for about 10 seconds, dried in air and put in test tubes. In each tube, five 2nd-instar nymphs of Nilaparvata lugens were released, and the tubes were capped with sponge and placed in an incubator at 25° C. 6 Days after, dead insects were counted, and the mortality (%) (the number of dead insects÷the number of released insects×100) was calculated. The test was carried out in duplicate.

Myzus persicae [2] = assay: Insecticidal Test on Myzus persicae; settings: foliar, 144 h
Protocol: (§1) Wet absorbent cotton was laid on glass dishes having an inner diameter of 3 cm, and covered with leaves of Canarium album cut into circles of the same diameter, and 4 apterous adults of Myzus persicae were released. After a day, 10% emulsifiable concentrates (or 10% wettable powders) of compounds of the present invention were diluted with water containing a spreader to obtain 500 ppm solutions, and the solution were sprayed from a rotary spray tower (2.5 mg/cm^2). The dishes were covered with lids and placed in an incubator at 25° C. 6 Days after, dead insects were counted, and the mortality was calculated by using the same equation as in Test Example 1. The test was carried out in duplicate.

Aphis gossypii = assay: Insecticidal Test on Aphis gossypii; settings: foliar, 144 h
Protocol: as §1, with “cucumber” for “Canarium album”, “Aphis gossypii” for “Myzus persicae”

Bemisia argentifolii = assay: Insecticidal Test on Bemisia argentifolii; settings: 120 h
Protocol: In styrol cups having an inner diameter of 7 cm, wet filter paper was laid, and kidney bean leaves cut to 3 cm were laid on the paper. 10% emulsifiable concentrates (or 10% wettable powders) of compounds of the present invention were diluted with water containing a spreader to obtain 500 ppm solutions. 2.5 ml of the solutions were sprayed from a rotary spray tower into the styrol cups (2.5 mg/cm^2). The leaves were dried in air, and adults of Bemisia argentifolii were released in the cups. The cups were closed and placed in an incubator at 25° C. 5 Days after, dead insects were counted, and the mortality was calculated by using the same equation as in Test Example 1. The test was carried out in duplicate.

[3] = 500 ppm solution, rice sheaths soaked, 2nd-instar nymphs, 25° C., 6 days after, read-out: mortality (%)
[4] = 500 ppm solution sprayed, apterous adults on leaf discs, 25° C., 6 days after, read-out: mortality
[5] = 500 ppm solution sprayed, apterous adults on cucumber leaf discs, 25° C., 6 days after, read-out: mortality
[6] = 500 ppm solution sprayed on kidney bean leaves, adults, 25° C., 5 days after, read-out: mortality

| SMILES | mortality at 500 ppm (Nilaparvata lugens; [3]) | mortality at 500 ppm (Myzus persicae [2]; [4]) | also measured |
| --- | --- | --- | --- |
| CCN(C(=O)C(CSC)OC)c1cn(-c2cccnc2)nc1Cl (stereo not drawn) [1-160, N-{3-chloro-1-(pyridin-3-yl)-1H-pyrazol-4-yl}-N-ethyl-2-methoxy-3-(methylthio)propanamide] |  |  | pest or weed control at 100 ppm (Myzus persicae [1]): ≥ 90% |
| CSCCC(=O)N(C)c1cn(-c2cccnc2)nc1C [1-018, N-methyl-N-{3-methyl-1-(pyridin-3-yl)-1H-pyrazol-4-yl}-3-(methylthio)propanamide] | ≥ 90% | ≥ 90% |  |
| CN(C(=O)OC(C)(C)C)c1cnn(C(C)(C)C)c1Cl [G-002, tert-butyl 1-tert-butyl-5-chloro-1H-pyrazol-4-yl(methyl)carbamate] |  |  | mortality at 500 ppm (Myzus persicae [2]): ≥ 90% |
| CCSC(C)C(=O)N(CC)c1cnn(C(C)(C)C)c1Cl (stereo not drawn) [1-001, N-(1-tert-butyl-5-chloro-1H-pyrazol-4-yl)-N-ethyl-2-(ethylthio)propanamide] |  | ≥ 90% | mortality at 500 ppm (Aphis gossypii; [5]): ≥ 90% |
| CSC1CCCN(c2cnn(-c3cccnc3)c2)C1=O (stereo not drawn) [1-028, 3-(methylthio)-1-{1-(pyridin-3-yl)-1H-pyrazol-4-yl}piperidin-2-one] | ≥ 90% | ≥ 90% | mortality at 500 ppm (Bemisia argentifolii; [6]): ≥ 90%; mortality at 500 ppm (Aphis gossypii; [5]): ≥ 90% |
| CCSC(C)C(=NOC)Nc1cn(-c2cccnc2)nc1Cl (stereo not drawn) [1-356, N-{3-chloro-1-(pyridin-3-yl)-1H-pyrazol-4-yl}-2-(ethylthio)-N′-methoxypropanimidamide] | ≥ 90% |  | mortality at 500 ppm (Bemisia argentifolii; [6]): ≥ 90% |
| Nc1cn(-c2cccnc2)nc1Cl [B-021, 3-chloro-1-(pyridin-3-yl)-1H-pyrazole-4-amine] | ≥ 90% |  |  |
| O=C(CCCCl)Nc1cn(-c2cccnc2)nc1Cl [1-131, 4-chloro-N-{3-chloro-1-(pyridin-3-yl)-1H-pyrazol-4-yl}butanamide] | ≥ 90% |  |  |
| CCNc1cnn(C(C)(C)C)c1Cl [H-001, 1-tert-butyl-5-chloro-N-ethyl-1H-pyrazole-4-amine hydrochloride] |  | ≥ 90% |  |
| C#CCNc1cn(-c2cccnc2)nc1Cl [B-008, 3-chloro-N-(prop-2-ynyl)-1-(pyridin-3-yl)-1H-pyrazole-4-amine] | ≥ 90% | ≥ 90% | mortality at 500 ppm (Aphis gossypii; [5]): ≥ 90% |
| CCN(C(=O)C(CSC)=NOC)c1cn(-c2cccnc2)nc1Cl [1-143, N-{3-chloro-1-(pyridin-3-yl)-1H-pyrazol-4-yl}-N-ethyl-2-(methoxyimino)-3-(methylthio)propanamide] |  |  | pest or weed control at 100 ppm (Myzus persicae [1]): ≥ 90% |
| CCSC(C)C(=O)N(CC)c1c[nH]nc1Cl (stereo not drawn) [J-001, N-(3-chloro-1H-pyrazol-4-yl)-N-ethyl-2-(ethylthio)propanamide] |  | ≥ 90% |  |
| CC(C)(C)OC(=O)Nc1cn(-c2cccnc2)nc1Cl [1-046, tert-butyl 3-chloro-1-(pyridin-3-yl)-1H-pyrazol-4-ylcarbamate] |  |  | mortality at 500 ppm (Bemisia argentifolii; [6]): ≥ 90% |
| CN(C1=NCCS1)c1cn(-c2cccnc2)nc1Cl [3-001, N-{3-chloro-1-(pyridin-3-yl)-1H-pyrazol-4-yl}-N-methyl-4,5-dihydrothiazole-2-amine] |  |  | mortality at 500 ppm (Bemisia argentifolii; [6]): ≥ 90% |
| Cc1nn(-c2cccnc2)cc1N [A-009, 3-methyl-1-(pyridin-3-yl)-1H-pyrazole-4-amine dihydrochloride] |  | ≥ 90% | mortality at 500 ppm (Aphis gossypii; [5]): ≥ 90% |
| O=C1CCCN1c1cn(-c2cccnc2)nc1Cl [1-132, 1-{3-chloro-1-(pyridin-3-yl)-1H-pyrazol-4-yl}pyrrolidin-2-one] |  | ≥ 90% |  |
| C=CC(=O)N(CC)c1cn(-c2cccnc2)nc1Cl [1-152, N-{3-chloro-1-(pyridin-3-yl)-1H-pyrazol-4-yl}-N-ethylacrylamide] |  |  | mortality at 500 ppm (Bemisia argentifolii; [6]): ≥ 90% |
| Cc1c(NC(=O)OC(C)(C)C)cnn1-c1cccnc1 [5-001, tert-butyl 5-methyl-1-(pyridin-3-yl)-1H-pyrazol-4-ylcarbamate] |  |  | mortality at 500 ppm (Aphis gossypii; [5]): ≥ 90% |

| SMILES | mortality at 500 ppm (Nilaparvata lugens; [3]) | mortality at 500 ppm (Myzus persicae [2]; [4]) | also measured |
| --- | --- | --- | --- |
| CN(C(=O)OC(C)(C)C)c1cn(-c2cccnc2)nc1Cl [1-037, tert-butyl 3-chloro-1-(pyridin-3-yl)-1H-pyrazol-4-yl(methyl)carbamate] |  |  | mortality at 500 ppm (Bemisia argentifolii): ≥ 90% |
| CCNc1cn(-c2cccnc2)nc1Cl [A-004, 3-chloro-N-ethyl-1-(pyridin-3-yl)-1H-pyrazole-4-amine dihydrochloride] |  | ≥ 90% |  |
| C=C1CCN(c2cn(-c3cccnc3)nc2Cl)C1=O [1-133, 1-{3-chloro-1-(pyridin-3-yl)-1H-pyrazol-4-yl}-3-methylenepyrrolidin-2-one] |  | ≥ 90% |  |
| CC(C)(C)OC(=O)Nc1cn(-c2cccnc2)nc1Br [1-188, tert-butyl 3-bromo-1-(pyridin-3-yl)-1H-pyrazol-4-ylcarbamate] | ≥ 90% |  | mortality at 500 ppm (Bemisia argentifolii; [6]): ≥ 90% |
| CSCCCN(C(C)=O)c1cn(-c2cccnc2)nc1Cl [1-153, N-{3-chloro-1-(pyridin-3-yl)-1H-pyrazol-4-yl}-N-{3-(methylthio)propyl}acetamide] |  |  | mortality at 500 ppm (Bemisia argentifolii; [6]): ≥ 90%; mortality at 500 ppm (Aphis gossypii; [5]): ≥ 90% |
| CC(C)(C)OC(=O)Nc1cnn(C(C)(C)C)c1Cl [F-001, tert-butyl 1-tert-butyl-5-chloro-1H-pyrazol-4-ylcarbamate] | ≥ 90% |  |  |
| CSCCCNc1cn(-c2cccnc2)nc1Cl [C-001, 3-chloro-N-{3-(methylthio)propyl}-1-(pyridin-3-yl)-1H-pyrazole-4-amine] | ≥ 90% | ≥ 90% |  |
| CCN(C(=O)OC(C)(C)C)c1cn(-c2cccnc2)nc1Cl [1-056, tert-butyl 3-chloro-1-(pyridin-3-yl)-1H-pyrazol-4-yl(ethyl)carbamate] |  |  | mortality at 500 ppm (Bemisia argentifolii): ≥ 90%; mortality at 500 ppm (Aphis gossypii): ≥ 90% |
| CCNc1cn(-c2cccnc2)nc1C(F)(F)F [B-018, N-ethyl-1-(pyridin-3-yl)-3-(trifluoromethyl)-1H-pyrazole-4-amine] | ≥ 90% | ≥ 90% |  |
| FC(F)(F)CNc1cn(-c2cccnc2)nc1Cl [B-012, 3-chloro-1-(pyridin-3-yl)-N-(2,2,2-trifluoroethyl)-1H-pyrazole-4-amine] | ≥ 90% |  |  |
| O=C1C(Br)CCCN1c1cnn(-c2cccnc2)c1 (stereo not drawn) [1-027, 3-bromo-1-{1-(pyridin-3-yl)-1H-pyrazol-4-yl}piperidin-2-one] |  | ≥ 90% |  |
| CNc1cn(-c2cccnc2)nc1C [A-001, N,3-dimethyl-1-(pyridin-3-yl)-1H-pyrazole-4-amine dihydrochloride] |  |  | mortality at 500 ppm (Aphis gossypii; [5]): ≥ 90% |
| Cc1nn(-c2cccnc2)cc1N [B-009, 3-methyl-1-(pyridin-3-yl)-1H-pyrazole-4-amine] | ≥ 90% |  |  |
| Cc1nn(-c2cccnc2)cc1N(C)C(=O)OC(C)(C)C [1-012, tert-butyl methyl{3-methyl-1-(pyridin-3-yl)-1H-pyrazol-4-yl}carbamate] |  |  | mortality at 500 ppm (Nilaparvata lugens; in Oryza sativa): ≥ 90%; mortality at 500 ppm (Bemisia argentifolii): ≥ 90%; mortality at 500 ppm (Myzus persicae [2]): ≥ 90% |
| CCCNc1cn(-c2cccnc2)nc1Cl [B-006, 3-chloro-N-n-propyl-1-(pyridin-3-yl)-1H-pyrazole-4-amine] | ≥ 90% | ≥ 90% | mortality at 500 ppm (Aphis gossypii; [5]): ≥ 90% |
| CNc1cn(-c2cccnc2)nc1Cl [A-003, 3-chloro-N-methyl-1-(pyridin-3-yl)-1H-pyrazole-4-amine dihydrochloride] |  | ≥ 90% |  |
| CSCCNc1cn(-c2cccnc2)nc1Cl [C-002, 3-chloro-N-{2-(methylthio)ethyl}-1-(pyridin-3-yl)-1H-pyrazole-4-amine] | ≥ 90% | ≥ 90% |  |

From patent US20130338367A1, “PYRAZOLE DERIVATIVES AND PESTICIDES” (Nissan Chemical Industries, Ltd., priority 2011, published 2013)
